Test: gradient 5% acetonitrile 3 min, to 50% in 2 min, to 85% in 15 min, held 3 min, 100 µL/min
Conditions: column: Zorbax Extend-C18 2.1 x 50 mm; eluents: water / acetonitrile, 0.1% formic acid
In short: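 Retention time was recorded from adduct peaks, which were picked computationally and each inspected manually. Pure standards ran in mixtures of ~100 molecules on HPLC coupled to a quadrupole time-of-flight mass spectrometer, in positive and negative ionization mode, through a Zorbax Extend-C18 column (2.1 × 50 mm, 1.8 μm) at 100 μL/min. Eluents were water and acetonitrile, each with 0.1% formic acid.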

SMILES | RP-LC retention time
C=CCn1c(=O)c2ccccc2n(Cc2nc(-c3cc(OC)cc(OC)c3)no2)c1=O | 1020 s
O=S(=O)(c1cc(-c2nnc(C3CC3)o2)co1)N1CCOCC1 | 730 s
O=C(CN1CCc2[nH]c3c(F)c(Cl)ccc3c(=O)c2C1)NCc1ccc2c(c1)OCO2 | 661 s
Cc1csc(-c2ccc(CNC(=O)c3cc(F)cc(F)c3)cc2)n1 | 939 s
CC(C)Cn1c(=O)c(N2CCN(C(=O)C(C)C)CC2)nc2ccccc21 | 1020 s
Cn1cc(-c2nc(C(=O)Nc3ccc(F)cc3F)cs2)c2cccnc21 | 1070 s
CCCCN(C)C(=O)Cn1c(C2CC(=O)N(Cc3ccccc3)C2)nc2ccccc21 (centres undefined) | 742 s
Cc1ccc(S(=O)(=O)C2=C(O)C(=O)N(Cc3ccco3)C2c2ccc(F)cc2)cc1 (centres undefined) | 931 s
CCC(C)n1c(=O)c2ccccc2n(Cc2nc(-c3ccc(C(F)(F)F)cc3)no2)c1=O (centres undefined) | 1290 s
Cc1ccc(F)c(NC(=O)c2c(O)c3cccnc3n(-c3ccc(F)cc3)c2=O)c1 | 1140 s
CC(C)(C)n1nc2c(c1NC(=O)c1nc3ccccc3s1)CSC2 | 952 s
Cc1cccc(C2(O)C(=O)N(CC(=O)NCc3ccco3)c3ccccc32)c1 (centres undefined) | 630 s
Cc1noc(C)c1S(=O)(=O)NCCOc1cc(N2CCOCC2)ncn1 | 643 s
O=C(Cn1cccc1-c1nc(-c2ccccc2)cs1)NCCCN1CCCC1 | 601 s
COCC(=O)N1C[C@@H]2CCCN3CCC[C@@H]([C@H]23)[C@H]1CCCC(=O)NCC1CC1 | 566 s
O=C(c1ccoc1)N1CCC(c2noc(C3CC3)n2)C1 (centres undefined) | 694 s
CCOc1ccc(-c2nc(Cn3ccn4nc(-c5ccc(OC)cc5)cc4c3=O)c(C)o2)cc1OC | 1030 s
COC(=O)c1sccc1NC(=O)Cn1c(C)cc(C)c(-c2nc(-c3ccccc3)no2)c1=O | 1060 s
O=C(Nc1cccc(Cl)c1)N1CCc2nc(-c3ccc(Cl)cc3)ncc2C1 | 1150 s
CCOc1ccccc1-n1nnc(-c2nn3c(Cc4ccccc4)nnc3s2)c1C | 857 s
O=C(Cn1ccn2nc(-c3ccc(F)cc3)c(CO)c2c1=O)Nc1cccc(Br)c1 | 894 s
COc1cccc(-c2ccc(=O)n(Cc3nc(-c4cccc(OC)c4)no3)n2)c1 | 682 s
Cc1oc(-c2[nH]ncc2C(=O)N(C)C)cc1S(=O)(=O)NCc1ccccn1 | 833 s
O=C(c1cccs1)N1CCN(c2cnn3c(C4CC4)nnc3c2)CC1 | 625 s
COc1ccc(OC)c(NC(=O)Cn2cccc(-c3nc(-c4ccc(F)cc4)no3)c2=O)c1 | 897 s
O=C(Cn1c(=O)c2cccn2c2ccc(F)cc21)NCCc1c[nH]c2ccccc12 | 834 s
CC(C)CN1C(=O)c2cccn2CC1C(=O)NCCCOC1CCN(C(C)C)CC1 (centres undefined) | 598 s
COc1cccc2c1OC1(C)CC2C(S(=O)(=O)c2ccc(C)c(C)c2)C(=O)N1C (centres undefined) | 931 s
O=C(NCc1ccc(Cl)cc1)c1c(O)c2cccnc2n(-c2ccccc2)c1=O | 1260 s

The remaining lines, values ahead:

RP-LC retention time | SMILES
774 s | CCOC(=O)c1ccc(NC(=O)C2CCN(S(=O)(=O)c3cn(CC)cn3)CC2)cc1
772 s | Cc1cc(C)cc(S(=O)(=O)N2CCC3(CC2)NCCN=C3NCc2cccc(F)c2)c1
712 s | CC(C)CCNC(=O)C1(C)Cn2nc(C(=O)NCc3ccccc3)cc2C(=O)N1C (centres undefined)
722 s | Cc1cc2nn(CC(=O)NCC3CCCO3)c(=O)n2c(Nc2ccc(F)cc2)n1 (centres undefined)
843 s | Cc1cc(C)cc(NC(=O)C2CCN(S(=O)(=O)c3cc(C(=O)N4CCCC4)n(C)c3)CC2)c1
1120 s | CCSc1nc2ccc(NS(=O)(=O)c3ccc(CC)cc3)cc2s1
659 s | O=C(CCn1cnc2cc(-c3noc(C4CC(=O)N(c5ccccc5)C4)n3)ccc21)N1CCCC1 (centres undefined)
593 s | CCOC(=O)c1noc2ncnc(Nc3ccc(CN4CCCCC4)cc3)c12
743 s | COc1ccccc1NC(=O)NCCc1nc2cccnc2n1C1CCCCC1
783 s | Cc1ccc(NC(=O)N2CCc3nc(-c4ccc(Cl)cc4)ncc3C2)cc1
795 s | CC(CNC(=O)c1cc2n(n1)CC(C)(C(=O)NC1CCCCC1)N(C)C2=O)c1ccccc1 (centres undefined)
628 s | CCOC(=O)c1[nH]c(C)c(C(=O)N2CCC(CC(=O)NC3CC3)CC2)c1C
771 s | COC(=O)c1ccc(NC(=O)N(C)c2ccccc2)cc1
785 s | O=C(NCC(=O)N1CCN(c2ccccc2Cl)CC1)c1c[nH]c2ccccc12
934 s | CCc1ccc(Nc2nc(C(=O)NC3CCCC3)nc3ccccc23)cc1
1050 s | Cc1cc(S(=O)(=O)N2CC=C(c3cn(C)c4ncccc34)CC2)ccc1F
584 s | Cc1cc(N2CCN(C(=O)CCc3c[nH]c4ccccc34)CC2)nc2ccccc12
1070 s | Cc1ccc(-c2ccc(-n3nc(C)c(S(=O)(=O)Nc4ccc(F)cc4)c3C)nn2)cc1

RP-LC retention time | SMILES
764 s | O=C(NC1CCCCCC1)c1ccc(-c2cncnc2)nc1
633 s | O=C(NCCC1=CCCCC1)C(=O)NCCN1CCN(c2ccc(F)cc2)CC1
996 s | Cc1ccc(NC(=O)C2CCCN(c3nc4ccsc4c(=O)n3-c3ccc(C)cc3)C2)cc1 (centres undefined)
901 s | COc1ccc(-c2noc(C3CCCN3C(=O)c3ccccc3OC)n2)cc1 (centres undefined)
910 s | O=C(Cn1nc(S(=O)(=O)c2ccc(Cl)cc2)ccc1=O)N1CCN(c2ccc(F)cc2)CC1
664 s | CCOc1ccccc1NC(=O)C1CCCN(c2cnc3nccnc3c2)C1 (centres undefined)
775 s | CCc1onc(C)c1C1CCCN1C(=O)c1ccccc1F (centres undefined)
716 s | CCC(C)NC(=O)C1CCCN(c2ccc(-c3ccc(C)c(C)c3)nn2)C1 (centres undefined)
1190 s | CC1CCN(c2nn(CC(=O)NCCc3ccc(Cl)cc3)c(=O)c3ccccc23)CC1
734 s | COc1ccc(NS(=O)(=O)c2cc3c(s2)CCN(C(=O)C2CC2)C3)cc1OC
791 s | Cc1nn(-c2cc(N3CCCC3)ncn2)c(C)c1CCC(=O)Nc1ccc(F)cc1Cl
609 s | COc1ccc(C)cc1S(=O)(=O)N1CCN(Cc2ccc3c(c2)OCO3)CC1
626 s | CC(=O)N1c2ccc(S(=O)(=O)N3CCCC3)cc2CC1C(=O)NCCCN1CCCCC1 (centres undefined)
781 s | Cc1ccc2c(c1)NC(=O)C(CC(=O)N1CCN(c3cccc(C)c3C)CC1)CO2 (centres undefined)
771 s | CCn1c(SC)nnc1-c1nn(C)c2c1CN(C(=O)Cc1ccc(F)cc1)CC2
1200 s | O=C(NC1CCCCCC1)C1CCN(c2nc3ccccc3nc2C(F)(F)F)CC1
596 s | CCOC(=O)CNC(=O)NCc1ccc2ncccc2c1

From the METLIN SMRT retention time set (Domingo-Almenara et al. 2019)
